The values below come from patent US9622984B1, “Synthesis of naringenin nanoparticles” (priority 2016, dated 2017).

Data set [1] relates to Nile tilapia (Oreochromis niloticus) exposed to 5 ppm CdCl2.H2O. Briefly: Cadmium concentration in tissues by atomic absorption spectrophotometer after 21 days exposure. It is filed as in vivo. The settings on record: fish exposed to Cd only (5 ppm), control 205.4804±62.9 ng/g. As for the experimental part:
(§1) Experimental design was as follows. Adult Nile tilapia, Oreochromis niloticus (n=120 fish), with an average length of 20±4 cm and weight of 150 g-200 g were procured from the local fish farm near Riyadh City. They were checked thoroughly for injury and disease conditions. After washing with 0.01% KMnO4 solution for 15 min, they were divided into five groups each comprising 20 fish and kept in glass tanks (100 L capacity) with non-chlorinated tap water. Prior to the start of the experiment, the fish were acclimated to the food and laboratory conditions with 12 hr dark and 12 hr light cycles, pH range of 6 to 8 and temperature ranging from 20° C. to 24° C. for 15 days. The exposure period was 21 days. Through the entire experimental period the fish were fed commercial pelleted diet at 2% body weight.
(§2) The experimental groups were in replicates as follows. Group I was the negative control which contained dechlorinated tap water with no added CdCl2.H2O and without any antioxidant treatment (designated “Control” in FIGS. 9-10). […]
Cadmium concentration in tissues was determined as follows. […] The concentration of Cd in digested tissue samples were analyzed in an atomic absorption spectrophotometer.
Cadmium accumulation in liver was assessed as follows. […]

A further data set relates to HSP70. Briefly: HSP70 levels in gills (ELISA kit) after 21 days exposure. It is filed as in vivo, Oreochromis niloticus. The settings on record: fish exposed to Cd only (5 ppm), control 152.8800±11.81554 pg/g. The procedure: as §1, §2
Biochemical analysis was performed as follows. A quantitation of MDA levels in the liver (lipid peroxides) was done by a high performance liquid chromatographic (HPLC) method. […] The levels of hepatic metalothionein levels (MT-2) and HSP70 in […] were also assessed using commercial ELISA kits.
Heat shock protein (HSP70) in gills was determined as follows. […]
On the technique in general: An ELISA detects its analyte on a solid surface through an enzyme-linked reagent.

Consider `O.[Cd+2].[Cl-].[Cl-]` [Cd, CdCl2.H2O], for which, in data set [1], the “Cd concentration in the liver” value amounted to 1113.3320 ± 48.39 ng/g. The “HSP70 concentration in gills” value with HSP70 came to 251.6600 ± 19.36 pg/g.
